In PMC5606850, “Acidic C-terminal domains autoregulate the RNA chaperone Hfq” (eLife, 2017):
“Also recorded” adds a separate entry of the source.

Tests used:
[1] = test system: linear pUC19 DNA; experiment: Hfq binding to linear pUC19 DNA, agarose gel mobility shift; conditions: 0–3.3 μM Hfq hexamer, 6 nM linear pUC19, 25 °C, 1.5% agarose
Method: Figure 5. CTD and RNAs inhibit DNA binding to Hfq by obstructing the basic rim patch. (A, B) Agarose gel electrophoretic mobility shift assays of 0–3.3 μM hexamer Hfq102, Hfq102-R16A, Hfq65 or Hfq65-R16A binding to 6 nM linear pUC19 DNA (2635 nts) at 25°C, stained with SYBR Gold. Hfq65 forms large aggregates that fail to enter the gel (Figure 5—figure supplement 1). (C, D) Line densitometry of DNA migration in (A, B). Free pUC19 (no Hfq) is shown in light grey. Samples with increasing Hfq concentration are shown in darker shades of grey. (E, F) RNA competition. Complexes of 0.5 μM Hfq102 hexamer and 6 nM linear pUC19 (black) were challenged by 0–2 μM RNA or DNA competitor (darker shades of red). pUC19 control in the absence of Hfq is shown in light grey. Icons indicate the binding surface for each competitor. See Figure 5—figure supplement 2 for gel images. Figure 5—figure supplement 1. Hfq CTD prevents aggregation with DNA. (A) Protease assay. 3.5 µM Hfq hexamer incubated with 6 nM linear (L) plus relaxed circular (N) pUC19 DNA at 25°C, for 30 min, in 50 mM Tris-HCl pH 7.5 and 10 mM CaCl2. The samples were divided in two. One set was diluted with a small amount of buffer and incubated at 25°C for an additional 2 hr. The second set was brought to 0.5% SDS, and 0.4 U Proteinase K (NEB) was added, followed by incubation at 50°C for an additional 2 hr. Loading dye was added to all samples just before they were loaded onto a native gel. […] Digestion of Hfq65 and Hfq65-R16A with Proteinase K liberates DNA from Hfq•DNA aggregates, allowing it to be detected (lanes 9 and 10). (B) Pelleting assay. 3.5 µM Hfq hexamer was incubated with 15 nM 1000 bp DNA (Thermo Scientific) at 25°C for 30 min in 50 mM Tris-HCl pH 7.5. Hfq·DNA aggregates were pelleted by centrifugation at 20,000 × g, 4°C, for 30 min. Supernatants were removed and split in two. The pellet and half the supernatant were brought to 1 M NaCl, and the Hfq·DNA aggregates were further disrupted by phenol-chloroform extraction, before all of the samples were loaded on an agarose gel. […] The small proportion of Hfq65·DNA complexes remaining in the supernatant were only detected in the gel after treatment with salt. […] Competition of Hfq-DNA interactions by small RNAs. EMSAs of 0.5 μM Hfq102 hexamer binding to 6 nM linearized pUC19 plasmid, that were competed with 0.1–2 μM RNAs or DNA at 30°C. Gels were run in a cold room. […]
Samples (10 µL) containing linear pUC19 (0.145 nmol bp), 0–3.333 µM Hfq hexamer, in 40 mM Tris-HCl pH 7.5, 0.14 mM EDTA, 35 mM NH4Cl, 3.7% (v/v) glycerol, 0.05% (w/v) bromophenol blue were incubated at 25°C for 30 min. […] The fluorescence intensity was measured on a line from the bottom edge of the well through the middle of the lane to visualize the migration of pUC19. […]

[2] = test system: 1000 bp DNA / pUC19 DNA; experiment: Hfq·DNA aggregation: pelleting and protease assays; assay type: biochemical; conditions: 3.5 µM Hfq hexamer, 15 nM 1000 bp DNA (pelleting) or 6 nM pUC19 (protease assay), 25 °C
Method: Figure 5. CTD and RNAs inhibit DNA binding to Hfq by obstructing the basic rim patch. (A, B) Agarose gel electrophoretic mobility shift assays of 0–3.3 μM hexamer Hfq102, Hfq102-R16A, Hfq65 or Hfq65-R16A binding to 6 nM linear pUC19 DNA ([…]) at 25°C, stained with SYBR Gold. Hfq65 forms large aggregates that fail to enter the gel (Figure 5—figure supplement 1). (C, D) Line densitometry of DNA migration in (A, B). Free pUC19 (no Hfq) is shown in light grey. Samples with increasing Hfq concentration are shown in darker shades of grey. (E, F) RNA competition. Complexes of 0.5 μM Hfq102 hexamer and 6 nM linear pUC19 (black) were challenged by 0–2 μM RNA or DNA competitor (darker shades of red). pUC19 control in the absence of Hfq is shown in light grey. Icons indicate the binding surface for each competitor. See Figure 5—figure supplement 2 for gel images. Figure 5—figure supplement 1. Hfq CTD prevents aggregation with DNA. (A) Protease assay. 3.5 µM Hfq hexamer incubated with 6 nM linear (L) plus relaxed circular (N) pUC19 DNA at 25°C, for 30 min, in 50 mM Tris-HCl pH 7.5 and 10 mM CaCl2. The samples were divided in two. […] Digestion of Hfq65 and Hfq65-R16A with Proteinase K liberates DNA from Hfq•DNA aggregates, allowing it to be detected (lanes 9 and 10). […] The small proportion of Hfq65·DNA complexes remaining in the supernatant were only detected in the gel after treatment with salt. […]

Substance	binding to linear pUC19 DNA (gel mobility) [1]	binding to linear pUC19 DNA (gel mobility) ([1]; listed as R16A)	Hfq·DNA aggregation [2]
Hfq65-R16A	rescued the formation of insoluble aggregates; also recorded: complexes migrated more slowly than those formed by similar concentrations of Hfq102	lowered the maximum gel retardation and increased the intensity of the ‘smear’	more evenly distributed between pellet and supernatant fractions; also recorded: form insoluble aggregates with DNA which do not enter the gel
Hfq65: truncated E. coli Hfq variant lacking the CTD	At higher protein concentrations, the DNA formed aggregates that were too large to enter the gel		Nearly all of the Hfq65·DNA complexes were found in the pellet fraction; also recorded: form insoluble aggregates with DNA which do not enter the gel
Hfq102: full-length E. coli Hfq	The mobility of the DNA-Hfq complexes decreased with added Hfq102		
